# According to ChEMBL document CHEMBL4613212, “Insights of synthetic analogues of anti-leprosy agents” (Bioorg Med Chem, 2019):
# Tests used:
# Mycobacterium leprae [1] = assay: Anti-leprotic activity against rifampicin-susceptible Mycobacterium leprae subcultures at 4 weeks assessed as ATP level per 10^7 cells at 0.2 mg/L measured by bioluminescence assay (reference value: 425 +/- 64 pg); assay type: functional
# Mycobacterium leprae [2] = assay: Anti-leprotic activity against rifampicin-susceptible Mycobacterium leprae subcultures at 4 weeks assessed as ATP level per 10^7 cells at 0.025 mg/L measured by bioluminescence assay (reference value: 425 +/- 64 pg); assay type: functional
# Mycobacterium leprae [3] = assay: Anti-leprotic activity against rifampicin-susceptible Mycobacterium leprae primary cultures at 4 weeks assessed as ATP level per 10^7 cells at 0.05 mg/L measured by bioluminescence assay (reference value: 332 +/- 46 pg); assay type: functional
# Mycobacterium leprae [4] = assay: Anti-leprotic activity against rifampicin-susceptible Mycobacterium leprae primary cultures at 4 weeks assessed as ATP level per 10^7 cells at 0.025 mg/L measured by bioluminescence assay (reference value: 332 +/- 46 pg); assay type: functional
# Mycobacterium leprae [5] = assay: Anti-leprotic activity against rifampicin-susceptible Mycobacterium leprae subcultures at 4 weeks assessed as ATP level per 10^7 cells at 0.1 mg/L measured by bioluminescence assay (reference value: 425 +/- 64 pg); assay type: functional
# Mycobacterium leprae [6] = assay: Anti-leprotic activity against rifampicin-susceptible Mycobacterium leprae subcultures at 4 weeks assessed as ATP level per 10^7 cells at 0.05 mg/L measured by bioluminescence assay (reference value: 425 +/- 64 pg); assay type: functional
# Mycobacterium leprae [7] = assay: Anti-leprotic activity against rifampicin-susceptible Mycobacterium leprae primary cultures at 4 weeks assessed as ATP level per 10^7 cells at 0.1 mg/L measured by bioluminescence assay (reference value: 332 +/- 46 pg); assay type: functional
# Mycobacterium leprae [8] = assay: Anti-leprotic activity against rifampicin-susceptible Mycobacterium leprae primary cultures at 4 weeks assessed as ATP level per 10^7 cells at 0.2 mg/L measured by bioluminescence assay (reference value: 332 +/- 46 pg); assay type: functional
# Mycobacterium leprae [9] = assay: Anti-leprotic activity against rifampicin-susceptible Mycobacterium leprae primary cultures at 4 weeks assessed as [3H]thymidine uptake per 5 times 10^7 cells at 0.025 mg/L incubated for 24 hrs (reference value: 1.05 +/- 0.16 pmol); assay type: functional
# Mycobacterium leprae [10] = assay: Anti-leprotic activity against rifampicin-susceptible Mycobacterium leprae primary cultures at 4 weeks assessed as [3H]thymidine uptake per 5 times 10^7 cells at 0.05 mg/L incubated for 24 hrs (reference value: 1.05 +/- 0.16 pmol); assay type: functional
# Mycobacterium leprae [11] = assay: Anti-leprotic activity against rifampicin-susceptible Mycobacterium leprae primary cultures at 4 weeks assessed as [3H]thymidine uptake per 5 times 10^7 cells at 0.1 mg/L incubated for 24 hrs (reference value: 1.05 +/- 0.16 pmol); assay type: functional
# Mycobacterium leprae [12] = assay: Anti-leprotic activity against rifampicin-susceptible Mycobacterium leprae primary cultures at 4 weeks assessed as [3H]thymidine uptake per 5 times 10^7 cells at 0.2 mg/L incubated for 24 hrs (reference value: 1.05 +/- 0.16 pmol); assay type: functional
# Mycobacterium leprae [13] = assay: Anti-leprotic activity against rifampicin-susceptible Mycobacterium leprae subcultures at 4 weeks assessed as [3H]thymidine uptake per 5 times 10^7 cells at 0.025 mg/L incubated for 24 hrs (reference value: 1.41 +/- 0.20 pmol); assay type: functional
# Mycobacterium leprae [14] = assay: Anti-leprotic activity against rifampicin-susceptible Mycobacterium leprae subcultures at 4 weeks assessed as [3H]thymidine uptake per 5 times 10^7 cells at 0.05 mg/L incubated for 24 hrs (reference value: 1.41 +/- 0.20 pmol); assay type: functional
# Mycobacterium leprae [15] = assay: Anti-leprotic activity against rifampicin-susceptible Mycobacterium leprae subcultures at 4 weeks assessed as [3H]thymidine uptake per 5 times 10^7 cells at 0.1 mg/L incubated for 24 hrs (reference value: 1.41 +/- 0.20 pmol); assay type: functional
# Mycobacterium leprae [16] = assay: Anti-leprotic activity against rifampicin-susceptible Mycobacterium leprae subcultures at 4 weeks assessed as [3H]thymidine uptake per 5 times 10^7 cells at 0.2 mg/L incubated for 24 hrs (reference value: 1.41 +/- 0.20 pmol); assay type: functional
# Enterococcus faecalis [17] = assay: Antimicrobial activity against Enterococcus faecalis ATCC 29212 by broth microdilution assay; assay type: functional
# Staphylococcus aureus = assay: Antimicrobial activity against Staphylococcus aureus ATCC 25923 by broth microdilution assay; assay type: functional
# Enterococcus faecalis [18] = assay: Antimicrobial activity against Enterococcus faecalis ATCC 51922 by broth microdilution assay; assay type: functional
# Listeria monocytogenes = assay: Antimicrobial activity against Listeria monocytogenes ATCC 1911 by broth microdilution assay; assay type: functional
# Klebsiella pneumoniae = assay: Antimicrobial activity against Klebsiella pneumoniae 700603 by broth microdilution assay; assay type: functional
# Pseudomonas aeruginosa = assay: Antimicrobial activity against Pseudomonas aeruginosa ATCC 27853 by broth microdilution assay; assay type: functional
# Escherichia coli [19] = assay: Antimicrobial activity against Escherichia coli ATCC 35218 by broth microdilution assay; assay type: functional
# Escherichia coli [20] = assay: Antimicrobial activity against Escherichia coli ATCC 25922 by broth microdilution assay; assay type: functional
# [21] = tested on: Mycobacterium tuberculosis; assay: Antitubercular activity against Mycobacterium tuberculosis H37Rv ATCC 27294 incubated for 7 days by microplate alamar blue assay; assay type: functional; details: H37Rv ATCC 27294, 168 h
# Nakaseomyces glabratus = assay: Antifungal activity against Candida glabrata; assay type: functional
# [22] = tested on: Mycobacterium tuberculosis; assay: Antitubercular activity against Mycobacterium tuberculosis H37Rv ATCC 27294 assessed as growth inhibition at 6.25 ug/ml by microplate alamar blue assay relative to control; assay type: functional
# [23] = tested on: Mycobacterium tuberculosis; assay: Antitubercular activity against Mycobacterium tuberculosis H37Rv ATCC 27294 assessed as inhibition of [3H]-thymidine incorporation; assay type: functional, organism-based
# [24] = tested on: Mycobacterium tuberculosis; assay: Antitubercular activity against Mycobacterium tuberculosis H37Rv ATCC 27294 assessed as inhibition of [3H]-thymidine incorporation relative to control; assay type: functional
# Mycobacterium leprae [25] = assay: Anti-leprotic activity against Mycobacterium leprae infected in BALB/c mouse assessed as time delay in bacterial multiplication in footpad at 0.0045 g/100g of diet administered via feed starting 60 or 75 day post infection up to 90 days by Shepard's kinetic method; assay type: functional
# Mycobacterium leprae [26] = assay: Anti-leprotic activity against Mycobacterium leprae primary cultures at 4 weeks assessed as ATP level per 10^7 cells at 5.0 mg/L measured by bioluminescence assay (reference value: 314 +/- 46 pg); assay type: functional
# Mycobacterium leprae [27] = assay: Anti-leprotic activity against Mycobacterium leprae primary cultures at 4 weeks assessed as ATP level per 10^7 cells at 10.0 mg/L measured by bioluminescence assay (reference value: 314 +/- 46 pg); assay type: functional
# Mycobacterium leprae [28] = assay: Anti-leprotic activity against Mycobacterium leprae primary cultures at 4 weeks assessed as ATP level per 10^7 cells at 15.0 mg/L measured by bioluminescence assay (reference value: 314 +/- 46 pg); assay type: functional
# Mycobacterium leprae [29] = assay: Anti-leprotic activity against Mycobacterium leprae primary cultures at 4 weeks assessed as [3H]thymidine uptake per 5 times 10^7 cells at 5.0 mg/L (reference value: 0.95 +/- 0.01 pmol); assay type: functional
# Mycobacterium leprae [30] = assay: Anti-leprotic activity against Mycobacterium leprae primary cultures at 4 weeks assessed as [3H]thymidine uptake per 5 times 10^7 cells at 10.0 mg/L (reference value: 0.95 +/- 0.01 pmol); assay type: functional
# Mycobacterium leprae [31] = assay: Anti-leprotic activity against Mycobacterium leprae primary cultures at 4 weeks assessed as [3H]thymidine uptake per 5 times 10^7 cells at 15.0 mg/L (reference value: 0.95 +/- 0.01 pmol); assay type: functional
# Mycobacterium leprae [32] = assay: Anti-leprotic activity against Mycobacterium leprae subcultures at 4 weeks assessed as ATP level per 10^7 cells at 5.0 mg/L measured by bioluminescence assay (reference value: 462 +/- 64 pg); assay type: functional
# Mycobacterium leprae [33] = assay: Anti-leprotic activity against Mycobacterium leprae subcultures at 4 weeks assessed as ATP level per 10^7 cells at 10.0 mg/L measured by bioluminescence assay (reference value: 462 +/- 64 pg); assay type: functional
# Mycobacterium leprae [34] = assay: Anti-leprotic activity against Mycobacterium leprae subcultures at 4 weeks assessed as ATP level per 10^7 cells at 15.0 mg/L measured by bioluminescence assay (reference value: 462 +/- 64 pg); assay type: functional
# Mycobacterium leprae [35] = assay: Anti-leprotic activity against Mycobacterium leprae subcultures at 4 weeks assessed as [3H]thymidine uptake per 5 times 10^7 cells at 5.0 mg/L (reference value: 1.28 +/- 0.14 pmol); assay type: functional
# Mycobacterium leprae [36] = assay: Anti-leprotic activity against Mycobacterium leprae subcultures at 4 weeks assessed as [3H]thymidine uptake per 5 times 10^7 cells at 10.0 mg/L (reference value: 1.28 +/- 0.14 pmol); assay type: functional
# Mycobacterium leprae [37] = assay: Anti-leprotic activity against Mycobacterium leprae subcultures at 4 weeks assessed as [3H]thymidine uptake per 5 times 10^7 cells at 15.0 mg/L (reference value: 1.28 +/- 0.14 pmol); assay type: functional
# Mycobacterium leprae [38] = assay: Antimicrobial activity against Mycobacterium leprae; assay type: functional
smiles,measurement,setting,value
CO[C@H]1/C=C/O[C@@]2(C)Oc3c(C)c(O)c4c(=O)c(c5oc6cc(N7CCN(CC(C)C)CC7)cc(O)c6nc-5c4c3C2=O)NC(=O)/C(C)=C\C=C\[C@H](C)[C@H](O)[C@@H](C)[C@@H](O)[C@@H](C)[C@H](OC(C)=O)[C@@H]1C [RIFALAZIL],Activity,Mycobacterium leprae [1],0 pg
same,Activity,Mycobacterium leprae [2],211 pg
same,Activity,Mycobacterium leprae [3],0 pg
same,Activity,Mycobacterium leprae [4],227 pg
same,Activity,Mycobacterium leprae [5],0 pg
same,Activity,Mycobacterium leprae [6],0 pg
same,Activity,Mycobacterium leprae [7],0 pg
same,Activity,Mycobacterium leprae [8],0 pg
same,Activity,Mycobacterium leprae [9],0.72 pmol
same,Activity,Mycobacterium leprae [10],0 pmol
same,Activity,Mycobacterium leprae [11],0 pmol
same,Activity,Mycobacterium leprae [12],0 pmol
same,Activity,Mycobacterium leprae [13],0.73 pmol
same,Activity,Mycobacterium leprae [14],0 pmol
same,Activity,Mycobacterium leprae [15],0 pmol
same,Activity,Mycobacterium leprae [16],0 pmol
O=[N+]([O-])c1ccc(/C=N/NC(=S)Nc2ccc(C(F)(F)F)cc2)cc1,MIC,Enterococcus faecalis [17],100 mg/L
same,MIC,Staphylococcus aureus,400 mg/L
same,MIC,Enterococcus faecalis [18],400 mg/L
same,MIC,Listeria monocytogenes,400 mg/L
same,MIC,Klebsiella pneumoniae,400 mg/L
same,MIC,Pseudomonas aeruginosa,400 mg/L
same,MIC,Escherichia coli [19],400 mg/L
same,MIC,Escherichia coli [20],400 mg/L
same,MIC,[21],400 mg/L
same,MIC,Nakaseomyces glabratus,200 mg/L
OC[C@H]1O[C@@H](n2cnc3c(-c4ccccc4)ncnc32)[C@H](O)[C@@H]1O,inhibition at 6.25 µg/mL,[22],14%
same,IC50,[23],0.4 mg/L
same,inhibition (INH),[24],99%
OC[C@H]1O[C@@H](n2cnc3c(-c4ccco4)nc(Cl)nc32)[C@H](O)[C@@H]1O,inhibition at 6.25 µg/mL,[22],7%
same,IC50,[23],3.4 mg/L
same,inhibition (INH),[24],100%
CCC(C)N1CCN(c2cc(O)c3nc4c5c6c7c(C)c(O)c5c(=O)c(c-4oc3c2)NC(=O)/C(C)=C\C=C\[C@H](C)[C@H](O)[C@@H](C)[C@@H](O)[C@@H](C)[C@H](OC(C)=O)[C@H](C)[C@@H](OC)/C=C/O[C@@](C)(O7)C6=O)CC1 (stereo in doubt; form 2),Activity,Mycobacterium leprae [1],0 pg
same,Activity,Mycobacterium leprae [2],363 pg
same,Activity,Mycobacterium leprae [3],233 pg
same,Activity,Mycobacterium leprae [4],298 pg
same,Activity,Mycobacterium leprae [5],0 pg
same,Activity,Mycobacterium leprae [6],221 pg
same,Activity,Mycobacterium leprae [7],0 pg
same,Activity,Mycobacterium leprae [8],0 pg
same,Activity,Mycobacterium leprae [9],0.298 pmol
same,Activity,Mycobacterium leprae [10],0.77 pmol
same,Activity,Mycobacterium leprae [11],0 pmol
same,Activity,Mycobacterium leprae [12],0 pmol
same,Activity,Mycobacterium leprae [13],0 pmol
same,Activity,Mycobacterium leprae [14],1.28 pmol
same,Activity,Mycobacterium leprae [15],0.76 pmol
same,Activity,Mycobacterium leprae [16],0 pmol
Nc1ccc([S+]([O-])c2ccc(N)cc2)cc1,Time,Mycobacterium leprae [25],90 days
COc1cc(Cc2cnc(N)nc2N)cc(OC)c1Br [BRODIMOPRIM],Activity,Mycobacterium leprae [26],296 pg
same,Activity,Mycobacterium leprae [27],108 pg
same,Activity,Mycobacterium leprae [28],0 pg
same,Activity,Mycobacterium leprae [29],0.88 pmol
same,Activity,Mycobacterium leprae [30],0.24 pmol
same,Activity,Mycobacterium leprae [31],0 pmol
same,Activity,Mycobacterium leprae [32],346 pg
same,Activity,Mycobacterium leprae [33],109 pg
same,Activity,Mycobacterium leprae [34],0 pg
same,Activity,Mycobacterium leprae [35],1.1 pmol
same,Activity,Mycobacterium leprae [36],0.27 pmol
same,Activity,Mycobacterium leprae [37],0 pmol
same,MIC,Mycobacterium leprae [38],0.025 mg/L
